From US4330532A, “Angiotensin-II analogues with antagonizing effects, containing an α-hydroxycarboxylic acid residue in position 8, and a process for the preparation thereof” (Richter Gedeon Vegyeszeti Gyar Rt., priority 1980, dated 1982) come the findings set out here.

The assay deals with hypertension provoked by angiotensin-II (Hypertensin (CIBA) infusion). Description: Antagonistic (hypotensive) effect on Hypertensin-infused narcotized male cats. The assay is classed as in vivo, cat. As to the method: The antagonistic effects of the new compounds of the formula (I) were investigated on narcotized male cats. After treating the animals with a ganglion blocking agent and bisecting the cervical vagus nerves on both sides, the animals were treated with an infusion of Hypertensin (CIBA) at a rate of 0.5 μg/kg/min. When the blood pressure of the animals reached a steady, increased level, the substance to be tested was administered either intravenously or subcutaneously in physiological saline solution or as an aqueous solution which also contained a carrier. The blood pressure drop was measured in mm Hg units, and the extent of decrease was expressed in percents related to the value before treatment. The statistical evaluation was performed on the basis of the blood pressure differences, by Student's single sample "t" test. The term "duration of effect" denotes the period elapsed until the observation of the last still significant (p±5%) blood pressure difference.

Where [1] appears, read: s.c., carboxymethyl cellulose (CMC) carrier, dose 100 μg/kg.
Where [2] appears, read: s.c., carboxymethyl cellulose (CMC) carrier, dose 200 μg/kg.
Setting [3] is: s.c., gelatine carrier, dose 200 μg/kg.
[4] abbreviates: s.c., physiological saline, dose 100 μg/kg.
[5] abbreviates: s.c., physiological saline, dose 200 μg/kg.

Each structure is given as a SMILES string.

Take `CNCC(=O)N[C@@H](CCCN=C(N)N)C(=O)N[C@H](C(=O)N[C@@H](Cc1ccc(O)cc1)C(=O)N[C@H](C(=O)N[C@@H](Cc1cnc[nH]1)C(=O)N1CCC[C@H]1C(=O)N[C@@H](C)C(=O)O)C(C)C)C(C)C` [Saralasin, (Sar^1, Ala^8)-angiotensin-II]: the “blood pressure drop, extent of decrease in percents related to the value before treatment” value (i.v., dose 10 μg/kg) turned out to be 32%; the “blood pressure drop, extent of decrease in percents related to the value before treatment” value under setting [1] turned out to be 23%; the “blood pressure drop, extent of decrease in percents related to the value before treatment” value under setting [2] worked out at 28%; the “blood pressure drop, extent of decrease in percents related to the value before treatment” value under setting [3] came out at 23%; the “blood pressure drop, extent of decrease in percents related to the value before treatment” value under setting [4] is given as 29%; the “blood pressure drop, extent of decrease in percents related to the value before treatment” value under setting [5] is 24%. Further, the duration of effect reads like this: (i.v., dose 10 μg/kg) 15 min; under setting [1], 45 min; under setting [2], 90 min; under setting [3], “.phi”; under setting [4], 60 min; under setting [5], 45 min.
